Test results taken from the supplement of paper PMC10627819.

Key:
[1] = tested on: S. aureus DSM 20231; experiment: fitness (endpoint OD595 vs no drug) (fraction); higher = more growth
Summary of the method: (§1)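 Each well of a 384-well plate received 30 µl of culture at OD595 0.01, or 55 µl for S. pneumoniae. TSB, LB Lennox or CY served as media at 37 °C. OD595 was taken every 30 min for 14 h and corrected by subtracting the first reading. Fitness is the optical density at stationary-phase entry divided by the robust mean of no-drug controls, capped at 1.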

[2] = tested on: S. aureus Newman; experiment: as above
Summary of the method: as §1

[3] = tested on: B. subtilis 168; experiment: Bliss interaction score (quartile over a dose matrix) (fitness difference); higher = more antagonism (negative = synergy)
Summary of the method: (§2)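 Growth was read as OD595 when cultures entered stationary phase, and each value was divided by the plate's robust no-drug mean and capped at 1. This normalised ratio is the fitness value, and fitness for each single drug came from the combination data. The Bliss score subtracts the expected fitness, taken as the product, from the observed fitness and is given as quartiles across technical, biological and donor/recipient replicates.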

[4] = tested on: S. aureus DSM 20231; experiment: as above
Summary of the method: as §2

[5] = tested on: S. aureus Newman; experiment: as above
Summary of the method: as §2

[6] = tested on: S. pneumoniae D39V; experiment: as above
Summary of the method: as §2
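For Bliss interaction score (quartile over a dose matrix) in this document: first quartile when negative (synergy) and third quartile when positive (antagonism).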

O=C(N[C@H](CO)[C@H](O)c1ccc([N+](=O)[O-])cc1)C(Cl)Cl [Chloramphenicol] + CN[C@H](CC(C)C)C(=O)N[C@H]1C(=O)N[C@@H](CC(N)=O)C(=O)N[C@H]2C(=O)N[C@H]3C(=O)N[C@H](C(=O)N[C@H](C(=O)O)c4cc(O)cc(O)c4-c4cc3ccc4O)[C@H](O)c3ccc(c(Cl)c3)Oc3cc2cc(c3O[C@@H]2O[C@H](CO)[C@@H](O)[C@H](O)[C@H]2O[C@H]2C[C@](C)(N)[C@H](O)[C@H](C)O2)Oc2ccc(cc2Cl)[C@H]1O [Vancomycin]
fitness
Details | first compound 0.75 µg/mL | first compound 1.5 µg/mL | first compound 3 µg/mL
[1], partner 0.1875 µg/mL | 0.669 | 0.608 | 0.165
[1], partner 0.375 µg/mL | 0.7 | 0.654 | 0.142
[1], partner 0.75 µg/mL | – | 0.652 | 0.15
[2], partner 0.1875 µg/mL | 0.874 | – | –
[2], partner 0.375 µg/mL | 0.877 | 0.607 | –
[2], partner 0.75 µg/mL | 0.836 | 0.634 | 0.23

Details | Bliss interaction score
[3] | -0.0535
[4] | 0.07
[5] | 0.079
[6] | -0.0896

O=C(N[C@H](CO)[C@H](O)c1ccc([N+](=O)[O-])cc1)C(Cl)Cl [Chloramphenicol] + C[n+]1ccc(-c2cc[n+](C)cc2)cc1 [Paraquat]
fitness
Details | first compound 0.75 µg/mL | first compound 1.5 µg/mL | first compound 3 µg/mL
[1], partner 1.25 µg/mL | 0.684 | 0.564 | 0.121
[1], partner 2.5 µg/mL | 0.711 | 0.626 | 0.159
[1], partner 5 µg/mL | 0.688 | 0.618 | 0.158
[2], partner 1.25 µg/mL | 0.724 | 0.423 | 0.164
[2], partner 2.5 µg/mL | 0.715 | 0.429 | 0.15
[2], partner 5 µg/mL | 0.739 | 0.476 | –

Details | Bliss interaction score
[3] | 0.0402
[4] | 0.0604
[5] | -0.058
[6] | 0.0595

O=C(N[C@H](CO)[C@H](O)c1ccc([N+](=O)[O-])cc1)C(Cl)Cl [Chloramphenicol] + COc1c(N2C[C@@H]3CCCN[C@@H]3C2)c(F)cc2c(=O)c(C(=O)O)cn(C3CC3)c12 [Moxifloxacin]
fitness
Details | first compound 0.75 µg/mL | first compound 1.5 µg/mL | first compound 3 µg/mL
[1], partner 0.0075 µg/mL | 0.578 | 0.633 | –
[1], partner 0.015 µg/mL | 0.714 | 0.636 | 0.113
[1], partner 0.03 µg/mL | 0.613 | 0.562 | 0.0861
[2], partner 0.0075 µg/mL | 0.738 | 0.566 | 0.214
[2], partner 0.015 µg/mL | 0.647 | 0.487 | 0.166
[2], partner 0.03 µg/mL | – | 0.364 | –

fitness, [1], one replicate
Details | first compound 0.75 µg/mL | first compound 1.5 µg/mL | first compound 3 µg/mL
partner 0.06 µg/mL | 0.67 | 0.635 | 0.0943
partner 0.12 µg/mL | 0.591 | 0.58 | 0.118

Details | Bliss interaction score
[3] | 0.0443
[4] | 0.148
[5] | 0.16
[6] | 0.0681

O=C(N[C@H](CO)[C@H](O)c1ccc([N+](=O)[O-])cc1)C(Cl)Cl [Chloramphenicol] + CC1=C\[C@@H](O)CC(=O)Cc2nc(co2)C(=O)N2CCC=C2C(=O)O[C@H](C(C)C)[C@H](C)/C=C/C(=O)NC\C=C\1 [Virginiamycin M1]
fitness
Details | first compound 0.75 µg/mL | first compound 1.5 µg/mL | first compound 3 µg/mL
[1], partner 0.0625 µg/mL | 0.735 | 0.555 | 0.084
[1], partner 0.125 µg/mL | 0.649 | 0.569 | –
[1], partner 0.25 µg/mL | 0.789 | 0.609 | 0.12
[2], partner 0.0625 µg/mL | 0.77 | 0.467 | 0.144
[2], partner 0.125 µg/mL | 0.777 | 0.474 | 0.151
[2], partner 0.25 µg/mL | 0.792 | 0.488 | 0.179

fitness, one replicate
Details | first compound 0.75 µg/mL | first compound 1.5 µg/mL | first compound 3 µg/mL
[1], partner 0.5 µg/mL | 0.884 | 0.601 | –
[1], partner 1 µg/mL | 0.811 | 0.535 | 0.149
[2], partner 0.5 µg/mL | 0.827 | 0.609 | 0.286
[2], partner 1 µg/mL | ≥ 1 | 0.692 | 0.26
[2], partner 2 µg/mL | 0.815 | 0.683 | 0.153

Details | Bliss interaction score
[3] | 0.0462
[4] | -0.0544
[5] | -0.0589
[6] | 0.0662

O=C(N[C@H](CO)[C@H](O)c1ccc([N+](=O)[O-])cc1)C(Cl)Cl [Chloramphenicol] + CCCCCCCCCC(=O)N[C@@H]1[C@H]([C@@H]([C@H](O[C@H]1OC2=C3C=C4C=C2OC5=C(C=C(C=C5)[C@H]([C@H]6C(=O)N[C@@H](C7=C(C(=CC(=C7)O)OC8[C@H]([C@H]([C@@H]([C@H](O8)CO)O)O)O)C9=C(C=CC(=C9)[C@H](C(=O)N6)NC(=O)[C@@H]4NC(=O)[C@@H]1C2=CC(=CC(=C2)OC2=C(C=CC(=C2)[C@H](C(=O)N[C@H](CC2=CC(=C(O3)C=C2)Cl)C(=O)N1)N)O)O)O)C(=O)O)O[C@H]1[C@@H]([C@H]([C@@H]([C@H](O1)CO)O)O)NC(=O)C)Cl)CO)O)O [Teicoplanin]
fitness, main component drawn
Details | first compound 0.75 µg/mL | first compound 1.5 µg/mL | first compound 3 µg/mL
[1], partner 0.1562 µg/mL | 0.813 | 0.638 | 0.129
[1], partner 0.3125 µg/mL | 0.804 | – | 0.141
[1], partner 0.625 µg/mL | 0.915 | 0.739 | 0.149
[2], partner 0.1562 µg/mL | 0.865 | 0.666 | –
[2], partner 0.3125 µg/mL | 0.876 | 0.679 | 0.112
[2], partner 0.625 µg/mL | 0.842 | 0.725 | 0.13

fitness, [2], one replicate, main component drawn
Details | first compound 0.75 µg/mL | first compound 1.5 µg/mL | first compound 3 µg/mL
partner 0.62 µg/mL | 0.876 | 0.634 | 0.256
partner 1.24 µg/mL | 0.872 | 0.578 | 0.191
partner 2.48 µg/mL | 0.584 | 0.512 | –

main component drawn
Details | Bliss interaction score
[3] | -0.0728
[4] | 0.143
[5] | 0.151
[6] | -0.0708

O=C(N[C@H](CO)[C@H](O)c1ccc([N+](=O)[O-])cc1)C(Cl)Cl [Chloramphenicol] + CN(N=O)C(=O)N[C@@H](C=O)[C@@H](O)[C@H](O)[C@H](O)CO [Streptozotocin]
fitness
Details | first compound 0.75 µg/mL | first compound 1.5 µg/mL | first compound 3 µg/mL
[1], partner 0.15 µg/mL | 0.677 | 0.481 | 0.104
[1], partner 0.3 µg/mL | 0.603 | 0.46 | 0.1
[1], partner 0.6 µg/mL | 0.616 | 0.385 | 0.0772
[2], partner 0.15 µg/mL | 0.705 | 0.464 | –
[2], partner 0.3 µg/mL | 0.605 | 0.402 | 0.0999
[2], partner 0.6 µg/mL | 0.47 | 0.295 | 0.0766

Details | Bliss interaction score
[3] | 0.0462
[4] | -0.0514
[5] | 0.0386
[6] | -0.0846

CCCCCCCCCC(=O)N[C@H]1[C@H](Oc2c3cc4cc2Oc2ccc(cc2Cl)[C@@H](O[C@@H]2O[C@H](CO)[C@@H](O)[C@H](O)[C@H]2NC(C)=O)[C@@H]2NC(=O)[C@H](NC(=O)[C@@H]4NC(=O)[C@H]4NC(=O)[C@@H](Cc5ccc(c(Cl)c5)O3)NC(=O)[C@H](N)c3ccc(O)c(c3)Oc3cc(O)cc4c3)c3ccc(O)c(c3)-c3c(O[C@H]4O[C@H](CO)[C@@H](O)[C@H](O)[C@@H]4O)cc(O)cc3[C@@H](C(=O)O)NC2=O)O[C@H](CO)[C@@H](O)[C@@H]1O [Teicoplanin] + CN[C@H](CC(C)C)C(=O)N[C@H]1C(=O)N[C@@H](CC(N)=O)C(=O)N[C@H]2C(=O)N[C@H]3C(=O)N[C@H](C(=O)N[C@H](C(=O)O)c4cc(O)cc(O)c4-c4cc3ccc4O)[C@H](O)c3ccc(c(Cl)c3)Oc3cc2cc(c3O[C@@H]2O[C@H](CO)[C@@H](O)[C@H](O)[C@H]2O[C@H]2C[C@](C)(N)[C@H](O)[C@H](C)O2)Oc2ccc(cc2Cl)[C@H]1O [Vancomycin]
fitness, main component drawn
Details | first compound 0.1562 µg/mL | first compound 0.3125 µg/mL | first compound 0.625 µg/mL
[1], partner 0.1875 µg/mL | 0.979 | ≥ 1 | ≥ 1
[1], partner 0.375 µg/mL | 0.834 | ≥ 1 | 0.956
[1], partner 0.75 µg/mL | 0.932 | ≥ 1 | 0.976
[2], partner 0.1875 µg/mL | ≥ 1 | ≥ 1 | 0.914
[2], partner 0.375 µg/mL | ≥ 1 | ≥ 1 | 0.881
[2], partner 0.75 µg/mL | 0.992 | 0.949 | 0.816

fitness, [2], one replicate, main component drawn
Details | first compound 0.62 µg/mL | first compound 1.24 µg/mL | first compound 2.48 µg/mL
partner 0.1875 µg/mL | 0.814 | 0.811 | 0.418
partner 0.375 µg/mL | 0.733 | 0.757 | 0.402
partner 0.75 µg/mL | 0.734 | 0.689 | 0.148

main component drawn
Details | Bliss interaction score
[3] | -0.0512
[4] | -0.0576
[5] | 0.0485
[6] | 0.0981

COc1c(N2C[C@@H]3CCCN[C@@H]3C2)c(F)cc2c(=O)c(C(=O)O)cn(C3CC3)c12 [Moxifloxacin] + CCCCCCCCCC(=O)N[C@@H]1[C@H]([C@@H]([C@H](O[C@H]1OC2=C3C=C4C=C2OC5=C(C=C(C=C5)[C@H]([C@H]6C(=O)N[C@@H](C7=C(C(=CC(=C7)O)OC8[C@H]([C@H]([C@@H]([C@H](O8)CO)O)O)O)C9=C(C=CC(=C9)[C@H](C(=O)N6)NC(=O)[C@@H]4NC(=O)[C@@H]1C2=CC(=CC(=C2)OC2=C(C=CC(=C2)[C@H](C(=O)N[C@H](CC2=CC(=C(O3)C=C2)Cl)C(=O)N1)N)O)O)O)C(=O)O)O[C@H]1[C@@H]([C@H]([C@@H]([C@H](O1)CO)O)O)NC(=O)C)Cl)CO)O)O [Teicoplanin]
fitness, main component drawn
Details | first compound 0.0075 µg/mL | first compound 0.015 µg/mL | first compound 0.03 µg/mL
[1], partner 0.1562 µg/mL | 0.912 | 0.852 | 0.748
[1], partner 0.3125 µg/mL | ≥ 1 | 0.94 | 0.752
[1], partner 0.625 µg/mL | ≥ 1 | 0.991 | 0.745
[2], partner 0.1562 µg/mL | 0.773 | 0.597 | 0.0859
[2], partner 0.3125 µg/mL | 0.797 | 0.577 | 0.0839
[2], partner 0.625 µg/mL | 0.717 | – | 0.06

fitness, one replicate, main component drawn
Details | partner 0.1562 µg/mL | partner 0.3125 µg/mL | partner 0.62 µg/mL | partner 0.625 µg/mL | partner 1.24 µg/mL | partner 2.48 µg/mL
[1], first compound 0.06 µg/mL | 0.665 | 0.7 | – | 0.697 | – | –
[1], first compound 0.12 µg/mL | 0.497 | 0.468 | – | 0.513 | – | –
[2], first compound 0.0075 µg/mL | – | – | 0.679 | – | 0.608 | 0.337
[2], first compound 0.015 µg/mL | – | – | 0.608 | – | 0.488 | 0.0713
[2], first compound 0.03 µg/mL | – | – | 0.0881 | – | 0.0113 | 0.0176

main component drawn
Details | Bliss interaction score
[3] | -0.0201
[4] | 0.0596
[5] | -0.0744
[6] | -0.0767
